{
  "source": "patent US10792289B2",
  "about": "(Horizon Orphan LLC, priority 2009, dated 2020)",
  "test_system": "P. aeruginosa",
  "experiment": "Phase 2 study: P. aeruginosa density in sputum",
  "type": "in vivo, Pseudomonas aeruginosa",
  "conditions": "for Reduction in P. aeruginosa density in sputum: median Day 1 to Day 28",
  "method": "The following dosage regimens (as nebulizer loaded doses) were evaluated: 120 mg QD (daily); 240 mg QD (daily); and 240 mg BID (twice daily).\nPatients were assessed on Day 1, 7, 14, and 28, and then up to 28 days after completion of study drug, namely, Days 42 and 56. The end of the study was defined as the last visit of the last patient.\nEfficacy was evaluated by microbiologic assessment of sputum samples, time to need for anti-pseudomonal antimicrobials, the Cystic Fibrosis Questionaire-Revised (CFQ-R), and pulmonary function tests. […] Pair-wise comparisons between all the treatment arms were conducted as secondary analyses.",
  "key": {"[1]": {"conditions": "EE, 120 mg QD, Baseline to Day 7"}, "[2]": {"conditions": "EE, 120 mg QD, Baseline to Day 14"}, "[3]": {"conditions": "EE, 120 mg QD, Baseline to Day 28"}, "[4]": {"conditions": "EE, 240 mg BID, Baseline to Day 7"}, "[5]": {"conditions": "EE, 240 mg BID, Baseline to Day 14"}, "[6]": {"conditions": "EE, 240 mg BID, Baseline to Day 28"}, "[7]": {"conditions": "EE, 240 mg QD, Baseline to Day 7"}, "[8]": {"conditions": "EE, 240 mg QD, Baseline to Day 14"}, "[9]": {"conditions": "EE, 240 mg QD, Baseline to Day 28"}, "[10]": {"conditions": "EE, combined 240 mg QD and BID, Baseline to Day 7"}, "[11]": {"conditions": "EE, combined 240 mg QD and BID, Baseline to Day 14"}, "[12]": {"conditions": "EE, combined 240 mg QD and BID, Baseline to Day 28"}, "[13]": {"conditions": "EE, combined 240 mg QD and BID, Day 1"}, "[14]": {"conditions": "EE, combined 240 mg QD and BID, Day 7"}, "[15]": {"conditions": "EE, combined 240 mg QD and BID, Day 14"}, "[16]": {"conditions": "EE, combined 240 mg QD and BID, Day 28"}, "[17]": {"conditions": "MITT, 120 mg QD, Baseline to Day 7"}, "[18]": {"conditions": "MITT, 120 mg QD, Baseline to Day 14"}},
  "data": [
    {"compound": "C[C@H]1COc2c(N3CCN(C)CC3)c(F)cc3c(=O)c(C(=O)O)cn1c23", "note": "[Levofloxacin, levofloxacin]", "values": [
      {"measurement": "Change in P. aeruginosa density, mean (SD)", "setting": "[1]", "value": "−0.76 (1.263) log10 CFU sputum"},
      {"measurement": "Change in P. aeruginosa density, median", "setting": "[1]", "value": "−0.58", "unit": "log10 CFU sputum"},
      {"measurement": "Change in P. aeruginosa density, mean (SD)", "setting": "[2]", "value": "−0.10 (1.240) log10 CFU sputum"},
      {"measurement": "Change in P. aeruginosa density, median", "setting": "[2]", "value": 0.00, "unit": "log10 CFU sputum"},
      {"measurement": "Change in P. aeruginosa density, mean (SD)", "setting": "[3]", "value": "−0.31 (1.050) log10 CFU sputum"},
      {"measurement": "Change in P. aeruginosa density, median", "setting": "[3]", "value": "−0.20", "unit": "log10 CFU sputum"},
      {"measurement": "P. aeruginosa density, median", "setting": "EE, 120 mg QD, Day 1", "value": 8.17, "unit": "log10 CFU sputum"},
      {"measurement": "P. aeruginosa density, mean (SD)", "setting": "EE, 120 mg QD, Day 7", "value": "6.64 (1.818) log10 CFU sputum"},
      {"measurement": "P. aeruginosa density, median", "setting": "EE, 120 mg QD, Day 7", "value": 6.86, "unit": "log10 CFU sputum"},
      {"measurement": "P. aeruginosa density, mean (SD)", "setting": "EE, 120 mg QD, Day 14", "value": "7.32 (1.643) log10 CFU sputum"},
      {"measurement": "P. aeruginosa density, median", "setting": "EE, 120 mg QD, Day 14", "value": 8.00, "unit": "log10 CFU sputum"},
      {"measurement": "P. aeruginosa density, mean (SD)", "setting": "EE, 120 mg QD, Day 28", "value": "7.25 (1.431) log10 CFU sputum"},
      {"measurement": "P. aeruginosa density, median", "setting": "EE, 120 mg QD, Day 28", "value": 7.78, "unit": "log10 CFU sputum"},
      {"measurement": "Reduction in P. aeruginosa density in sputum", "setting": "EE, 120 mg QD", "value": "approximately 59%"},
      {"measurement": "Change in P. aeruginosa density, mean (SD)", "setting": "[4]", "value": "−1.03 (1.921) log10 CFU sputum"},
      {"measurement": "Change in P. aeruginosa density, median", "setting": "[4]", "value": "−0.88", "unit": "log10 CFU sputum"},
      {"measurement": "Change in P. aeruginosa density, mean (SD)", "setting": "[5]", "value": "−0.83 (1.901) log10 CFU sputum"},
      {"measurement": "Change in P. aeruginosa density, median", "setting": "[5]", "value": "−0.91", "unit": "log10 CFU sputum"},
      {"measurement": "Change in P. aeruginosa density, mean (SD)", "setting": "[6]", "value": "−0.74 (1.488) log10 CFU sputum"},
      {"measurement": "Change in P. aeruginosa density, median", "setting": "[6]", "value": "−0.68", "unit": "log10 CFU sputum"},
      {"measurement": "P. aeruginosa density, mean (SD)", "setting": "EE, 240 mg BID, Day 1", "value": "7.26 (1.433) log10 CFU sputum"},
      {"measurement": "P. aeruginosa density, median", "setting": "EE, 240 mg BID, Day 1", "value": 7.84, "unit": "log10 CFU sputum"},
      {"measurement": "P. aeruginosa density, mean (SD)", "setting": "EE, 240 mg BID, Day 7", "value": "6.23 (1.850) log10 CFU sputum"},
      {"measurement": "P. aeruginosa density, median", "setting": "EE, 240 mg BID, Day 7", "value": 6.52, "unit": "log10 CFU sputum"},
      {"measurement": "P. aeruginosa density, mean (SD)", "setting": "EE, 240 mg BID, Day 14", "value": "6.43 (1.725) log10 CFU sputum"},
      {"measurement": "P. aeruginosa density, median", "setting": "EE, 240 mg BID, Day 14", "value": 6.81, "unit": "log10 CFU sputum"},
      {"measurement": "P. aeruginosa density, mean (SD)", "setting": "EE, 240 mg BID, Day 28", "value": "6.65 (1.440) log10 CFU sputum"},
      {"measurement": "P. aeruginosa density, median", "setting": "EE, 240 mg BID, Day 28", "value": 6.40, "unit": "log10 CFU sputum"},
      {"measurement": "Reduction in P. aeruginosa density in sputum", "setting": "EE, 240 mg BID", "value": "approximately 96%"},
      {"measurement": "Change in P. aeruginosa density, mean (SD)", "setting": "[7]", "value": "−0.25 (1.789) log10 CFU sputum"},
      {"measurement": "Change in P. aeruginosa density, median", "setting": "[7]", "value": "−0.18", "unit": "log10 CFU sputum"},
      {"measurement": "Change in P. aeruginosa density, mean (SD)", "setting": "[8]", "value": "−0.47 (1.905) log10 CFU sputum"},
      {"measurement": "Change in P. aeruginosa density, median", "setting": "[8]", "value": "−0.11", "unit": "log10 CFU sputum"},
      {"measurement": "Change in P. aeruginosa density, mean (SD)", "setting": "[9]", "value": "−0.38 (1.780) log10 CFU sputum"},
      {"measurement": "Change in P. aeruginosa density, median", "setting": "[9]", "value": "−0.52", "unit": "log10 CFU sputum"},
      {"measurement": "P. aeruginosa density, mean (SD)", "setting": "EE, 240 mg QD, Day 1", "value": "7.16 (1.597) log10 CFU sputum"},
      {"measurement": "P. aeruginosa density, median", "setting": "EE, 240 mg QD, Day 1", "value": 7.97, "unit": "log10 CFU sputum"},
      {"measurement": "P. aeruginosa density, mean (SD)", "setting": "EE, 240 mg QD, Day 7", "value": "6.94 (1.783) log10 CFU sputum"},
      {"measurement": "P. aeruginosa density, median", "setting": "EE, 240 mg QD, Day 7", "value": 7.15, "unit": "log10 CFU sputum"},
      {"measurement": "P. aeruginosa density, mean (SD)", "setting": "EE, 240 mg QD, Day 14", "value": "6.69 (1.628) log10 CFU sputum"},
      {"measurement": "P. aeruginosa density, median", "setting": "EE, 240 mg QD, Day 14", "value": 6.46, "unit": "log10 CFU sputum"},
      {"measurement": "P. aeruginosa density, mean (SD)", "setting": "EE, 240 mg QD, Day 28", "value": "6.78 (1.896) log10 CFU sputum"},
      {"measurement": "P. aeruginosa density, median", "setting": "EE, 240 mg QD, Day 28", "value": 7.38, "unit": "log10 CFU sputum"},
      {"measurement": "Reduction in P. aeruginosa density in sputum", "setting": "EE, 240 mg QD", "value": "approximately 74%"},
      {"measurement": "Largest difference in P. aeruginosa density, placebo vs levofloxacin", "setting": "EE, Day 7", "value": 1.62, "unit": "log10 CFU/g sputum"},
      {"measurement": "Largest difference in P. aeruginosa density, placebo vs levofloxacin", "setting": "EE, Day 14", "value": 1.39, "unit": "log10 CFU/g sputum"},
      {"measurement": "Largest difference in P. aeruginosa density, placebo vs levofloxacin", "setting": "EE, Day 28", "value": 1.88, "unit": "log10 CFU/g sputum"},
      {"measurement": "Change in P. aeruginosa density, mean (SD)", "setting": "[10]", "value": "−0.64 (1.833) log10 CFU sputum"},
      {"measurement": "Change in P. aeruginosa density, median", "setting": "[10]", "value": "−0.37", "unit": "log10 CFU sputum"},
      {"measurement": "Change in P. aeruginosa density, mean (SD)", "setting": "[11]", "value": "−0.65 (1.898) log10 CFU sputum"},
      {"measurement": "Change in P. aeruginosa density, median", "setting": "[11]", "value": "−0.46", "unit": "log10 CFU sputum"},
      {"measurement": "Change in P. aeruginosa density, mean (SD)", "setting": "[12]", "value": "−0.55 (1.645) log10 CFU sputum"},
      {"measurement": "Change in P. aeruginosa density, median", "setting": "[12]", "value": "−0.58", "unit": "log10 CFU sputum"},
      {"measurement": "P. aeruginosa density, mean (SD)", "setting": "[13]", "value": "7.21 (1.508) log10 CFU sputum"},
      {"measurement": "P. aeruginosa density, median", "setting": "[13]", "value": 7.90, "unit": "log10 CFU sputum"},
      {"measurement": "P. aeruginosa density, mean (SD)", "setting": "[14]", "value": "6.59 (1.838) log10 CFU sputum"},
      {"measurement": "P. aeruginosa density, median", "setting": "[14]", "value": 6.77, "unit": "log10 CFU sputum"},
      {"measurement": "P. aeruginosa density, mean (SD)", "setting": "[15]", "value": "6.56 (1.669) log10 CFU sputum"},
      {"measurement": "P. aeruginosa density, median", "setting": "[15]", "value": 6.78, "unit": "log10 CFU sputum"},
      {"measurement": "P. aeruginosa density, mean (SD)", "setting": "[16]", "value": "6.72 (1.683) log10 CFU sputum"},
      {"measurement": "P. aeruginosa density, median", "setting": "[16]", "value": 6.90, "unit": "log10 CFU sputum"},
      {"measurement": "Change in P. aeruginosa density, mean", "setting": "[17]", "value": "−0.70", "unit": "log10 CTU/g sputum"},
      {"measurement": "Change in P. aeruginosa density, median", "setting": "[17]", "value": "−0.53", "unit": "log10 CTU/g sputum"},
      {"measurement": "Change in P. aeruginosa density, mean", "setting": "[18]", "value": "−0.07", "unit": "log10 CTU/g sputum"},
      {"measurement": "Change in P. aeruginosa density, median", "setting": "[18]", "value": 0.00, "unit": "log10 CTU/g sputum"},
      {"measurement": "Change in P. aeruginosa density, mean", "setting": "MITT, 120 mg QD, Baseline to Day 28", "value": "−0.27", "unit": "log10 CTU/g sputum"}
    ]}
  ]
}
